Measured values from PMC2363476 (British Journal of Cancer, 2000).
Counter-ions that a name gives are not always drawn. Like-named read-outs stand apart in the source and are kept apart here.

Tests used:
[1] = Plasma pharmacokinetics of irinotecan and SN-38 (reversed-phase HPLC); conditions: for SN-38/irinotecan AUC ratio / SN-38 Cmax / AUC / Cmax: cycle 1; for SN-38 Cmax: observed Cmax; for AUC / Cmax: human, plasma; for AUC: intravenous, Irinotecan AUC; for Cmax: iv, Irinotecan Cmax, estimated at the end of i.v. infusion
Procedure: Other radiological investi- gations were carried out if indicated. […] Pharmacokinetic analysis was performed using WinNonlin software. […] Patients were seen weekly while on treatment.

[2] = 1995, cited from earlier work
[3] = tested on: patients with advanced GI tract adenocarcinoma
Text: The primary objectives of this study were to determine the maximum tolerated doses (MTD) of the two drugs given as short infusions every 3 weeks and to determine the toxic effects and DLT of the combination. Secondary objectives were to measure the pharmacokinetics of irinotecan, SN-38 and raltitrexed, to assess the anti-tumour effect of the combination and to recom- mend a safe dose for phase II evaluation. METHODS Definitions DLT was defined as any grade 3 or 4 non-haematological toxicity (except alopecia) following cycle 1; grade 4 neutropenia or grade 3-4 neutropenia associated with fever (> 38C) or sepsis; grade 4 thrombocytopenia or any grade of thrombocytopenia associated with haemorrhage. MTD was defined as the dose level at which 50% of patients experienced the same DLT. […] Exclusion criteria were: previous treatment with topoisomerase I inhibitor; chronic enteropathy; symptomatic cerebral metastasis or leptomeningeal carcinomatosis; unresolved bowel obstruction; pregnancy; previous malignant disease (except adequately treated carcinoma in situ of the cervix uteri or basal cell carcinoma of the skin). Pre-treatment evaluation Prior to entry, patients were evaluated with a physical examina- tion. An ECG, chest X-ray and CT scan of thorax abdomen and pelvis were carried out on all patients. Other radiological investi- gations were carried out if indicated. A full blood count, renal function tests, liver function tests and prothrombin time were also performed. […] A minimum of three patients were recruited to each dose level, and escalation to the next level was carried out when all three had been observed for a minimum of 2 weeks. The initial design was for the level below MTD to be expanded to six patients. […] Patients received six cycles of treatment subject to favourable response. Further cycles could be administered at the investigators' discre- tion if there was evidence of continuing clinical benefit. […] Pharmacokinetic analysis was performed using WinNonlin software. The calculation of kinetic parameters was performed using a 2- or 3-compartment open model for irinotecan, and a non-compartmental analysis for its metabolite SN-38 and raltitrexed. The following parameters were evaluated: maximum plasma concentration (Cmax ); area under the plasma concentration-time curve (AUC); total body clearance (Cl); volume of distribution at steady state (Vss ) and terminal half-life (t1/2 ). Evaluation and management of toxicity No prophylactic antidiarrhoeal treatment was given. […] Patients were seen weekly while on treatment. Toxicities were graded according to the NCI common toxicity criteria (NCI-CTC). […] Any patient experiencing concomitant vomiting was hospitalized to prevent dehydration. […] All patients with febrile neutropaenia were admitted to hospital and treated with intravenous antibiotics. […] In the case of myelosuppression lasting more than 5 weeks from the date of treatment, the patient was withrawn from the study.

[4] = Plasma pharmacokinetics of raltitrexed (radioimmunoassay); type: in vivo; conditions: human, intravenous
Procedure: […]. […] […]. […] 261 courses were administered. […] Two others had lethargy caused by disease progression. There was no first-cycle neutropenia. […] […]; 6/30 patients (20%) had objective responses. This combination is active with manageable toxicity. […] Other radiological investi- gations were carried out if indicated. […] […]. […] Pharmacokinetic analysis was performed using WinNonlin software. […] […]. Patients were seen weekly while on treatment. […] […]. […] All the other patients were evaluable for toxicity. […] Duration of neutropaenia ranged from 3-8 days. […] Grade 3 lethargy was therefore defined as a DLT. […] […]. […] They therefore continued treatment as scheduled. […] Dose delays were seen after 24/143 cycles (17%). […] Six patients required dose reduction.

[5] = 1998, cited from earlier work
[6] = dose level I (irinotecan 175, raltitrexed 2.6 mg m-2), n=3
[7] = dose level II (irinotecan 200, raltitrexed 2.6 mg m-2), n=3
[8] = dose level III (irinotecan 250, raltitrexed 2.6 mg m-2), n=3
[9] = dose level IV (irinotecan 300, raltitrexed 2.6 mg m-2), n=3
[10] = dose level V (irinotecan 350, raltitrexed 2.6 mg m-2), n=3
[11] = dose level VI (irinotecan 350, raltitrexed 3.0 mg m-2), n=6
[12] = dose level VII (irinotecan 400, raltitrexed 2.6 mg m-2), n=5
[13] = dose level I (irinotecan 175, raltitrexed 2.6 mg m-2), cycle 1, n=3
[14] = dose level II (irinotecan 200, raltitrexed 2.6 mg m-2), cycle 1, n=3
[15] = dose level III (irinotecan 250, raltitrexed 2.6 mg m-2), cycle 1, n=3
[16] = dose level IV (irinotecan 300, raltitrexed 2.6 mg m-2), cycle 1, n=3
[17] = dose level V (irinotecan 350, raltitrexed 2.6 mg m-2), cycle 1, n=3
[18] = dose level VI (irinotecan 350, raltitrexed 3.0 mg m-2), cycle 1, n=6
[19] = dose level VII (irinotecan 400, raltitrexed 2.6 mg m-2), cycle 1, n=6
[20] = 3.0 mg m-2, 14C labelled raltitrexed, single agent, ref Beale et al

In the case of `CCc1c2c(nc3ccc(O)cc13)-c1cc3c(c(=O)n1C2)COC(=O)[C@]3(O)CC` [SN-38], the “SN-38 time of maximal concentrations following the end of i.v. infusion” value ([1]; all dose levels) is reported as ≤ 60 min, the “SN-38/irinotecan AUC ratio” value [1, 6] is reported as 2.1% and the “SN-38 Cmax” value [1, 6] is reported as 48000 µg/mL. The “SN-38/irinotecan AUC ratio” value [1, 7] was 3.2%, the “SN-38 Cmax” value [1, 7] was 74000 µg/mL and the “SN-38/irinotecan AUC ratio” value [1, 8] was 2.3%. For the same compound, the “SN-38 Cmax” value [1, 8] was 60000 µg/mL, the “SN-38/irinotecan AUC ratio” value [1, 9] was 2.1% and the “SN-38 Cmax” value [1, 9] was 71000 µg/mL. The “SN-38/irinotecan AUC ratio” value [1, 10] was 2.9%, the “SN-38 Cmax” value [1, 10] was 57000 µg/mL and the “SN-38/irinotecan AUC ratio” value [1, 11] was 2.1%. For the same compound, the “SN-38 Cmax” value [1, 11] was 100000 µg/mL, the “SN-38/irinotecan AUC ratio” value [1, 12] was 2.7% and the “SN-38 Cmax” value [1, 12] was 117000 µg/mL. The “SN-38 apparent terminal half-life, mean value” ([1]; over the administered dose range) was 0.462 days, the “SN-38/irinotecan AUC ratio, overall mean value” ([1]; over the tested dose range) was 2.4% and the “SN-38 t1/2” value ([2]; 168 phase I cancer patients treated with irinotecan alone, ref Chabot et al) was 0.442 days. The “SN-38/irinotecan AUC ratio, overall mean value” ([2]; irinotecan monotherapy, ref Abigerges et al) was 3.1%.

For `CCc1c2c(nc3ccc(OC(=O)N4CCC(N5CCCCC5)CC4)cc13)-c1cc3c(c(=O)n1C2)COC(=O)[C@]3(O)CC` [irinotecan, Irinotecan hydrochloride], the “MTD, irinotecan dose” value ([3]; with raltitrexed 2.6 mg m-2, 3-weekly (level VII)) was 400 mg m-2, the “recommended dose for phase II evaluation, irinotecan” value ([3]; with raltitrexed 3.0 mg m-2 every 3 weeks (level VI)) was 350 mg m-2 and the AUC [1, 6] was 13100 ng·h/mL. The AUC [1, 7] was 16000 ng·h/mL, the AUC [1, 8] was 14600 ng·h/mL and the AUC [1, 9] was 22600 ng·h/mL. For the same compound, the AUC [1, 10] was 26600 ng·h/mL, the AUC [1, 11] was 29000 ng·h/mL and the AUC [1, 12] was 27000 ng·h/mL. The Cmax [1, 6] was 3.53 µg/mL, the Cmax [1, 7] was 4.7 µg/mL and the Cmax [1, 8] was 5.92 µg/mL. For the same compound, the Cmax [1, 9] was 5.98 µg/mL, the Cmax [1, 10] was 4.89 µg/mL and the Cmax [1, 11] was 5.43 µg/mL. The Cmax [1, 12] was 5.41 µg/mL.

In the case of `Cc1nc2ccc(CN(C)c3ccc(C(=O)N[C@@H](CCC(=O)O)C(=O)O)s3)cc2c(=O)[nH]1` [raltitrexed], the “patients with lower limb cellulitis secondary to raltitrexed” value ([3]; combination treatment) is reported as “One”, the “recommended dose for phase II evaluation, raltitrexed” value ([3]; with irinotecan 350 mg m-2 every 3 weeks (level VI)) is reported as 3.0 mg m-2 and the “MTD, raltitrexed dose” value ([3]; with irinotecan 400 mg m-2, 3-weekly (level VII)) is reported as 2.6 mg m-2. It also gave an AUC [4, 13] of 1710 ng·h/mL, a Cmax [4, 13] of 0.561 µg/mL and a clearance ([4]; dose level I (irinotecan 175, raltitrexed 2.6 mg m-2), cycle 1, n=3, read-out: Raltitrexed Cl (converted)) of 50.2 mL/min. It also gave a Vd ([4]; dose level I (irinotecan 175, raltitrexed 2.6 mg m-2), cycle 1, n=3, read-out: Raltitrexed Vss) of 40.7 L, a half-life ([4]; dose level I (irinotecan 175, raltitrexed 2.6 mg m-2), cycle 1, n=3, read-out: Raltitrexed t1/2 terminal (converted)) of 9.25 days and an AUC [4, 14] of 1440 ng·h/mL. For the same compound, the Cmax [4, 14] was 0.42 µg/mL, the clearance ([4]; dose level II (irinotecan 200, raltitrexed 2.6 mg m-2), cycle 1, n=3, read-out: Raltitrexed Cl (converted)) was 78.3 mL/min and the Vd ([4]; dose level II (irinotecan 200, raltitrexed 2.6 mg m-2), cycle 1, n=3, read-out: Raltitrexed Vss) was 27.3 L. It also gave a half-life ([4]; dose level II (irinotecan 200, raltitrexed 2.6 mg m-2), cycle 1, n=3, read-out: Raltitrexed t1/2 terminal (converted)) of 7.92 days, an AUC [4, 15] of 1460 ng·h/mL and a Cmax [4, 15] of 0.291 µg/mL. It also gave a clearance ([4]; dose level III (irinotecan 250, raltitrexed 2.6 mg m-2), cycle 1, n=3, read-out: Raltitrexed Cl (converted)) of 56 mL/min, a Vd ([4]; dose level III (irinotecan 250, raltitrexed 2.6 mg m-2), cycle 1, n=3, read-out: Raltitrexed Vss) of 60.2 L and a half-life ([4]; dose level III (irinotecan 250, raltitrexed 2.6 mg m-2), cycle 1, n=3, read-out: Raltitrexed t1/2 terminal (converted)) of 14.4 days. It also gave an AUC [4, 16] of 1810 ng·h/mL, a Cmax [4, 16] of 0.676 µg/mL and a clearance ([4]; dose level IV (irinotecan 300, raltitrexed 2.6 mg m-2), cycle 1, n=3, read-out: Raltitrexed Cl (converted)) of 47.2 mL/min. It also gave a Vd ([4]; dose level IV (irinotecan 300, raltitrexed 2.6 mg m-2), cycle 1, n=3, read-out: Raltitrexed Vss) of 32.3 L, a half-life ([4]; dose level IV (irinotecan 300, raltitrexed 2.6 mg m-2), cycle 1, n=3, read-out: Raltitrexed t1/2 terminal (converted)) of 14.5 days and an AUC [4, 17] of 2520 ng·h/mL. For the same compound, the Cmax [4, 17] was 0.736 µg/mL, the clearance ([4]; dose level V (irinotecan 350, raltitrexed 2.6 mg m-2), cycle 1, n=3, read-out: Raltitrexed Cl (converted)) was 41.7 mL/min and the Vd ([4]; dose level V (irinotecan 350, raltitrexed 2.6 mg m-2), cycle 1, n=3, read-out: Raltitrexed Vss) was 30.2 L. It also gave a half-life ([4]; dose level V (irinotecan 350, raltitrexed 2.6 mg m-2), cycle 1, n=3, read-out: Raltitrexed t1/2 terminal (converted)) of 16.8 days, an AUC [4, 18] of 2480 ng·h/mL and a Cmax [4, 18] of 0.772 µg/mL. The clearance ([4]; dose level VI (irinotecan 350, raltitrexed 3.0 mg m-2), cycle 1, n=6, read-out: Raltitrexed Cl (converted)) was 40.2 mL/min, the Vd ([4]; dose level VI (irinotecan 350, raltitrexed 3.0 mg m-2), cycle 1, n=6, read-out: Raltitrexed Vss) was 25.8 L and the half-life ([4]; dose level VI (irinotecan 350, raltitrexed 3.0 mg m-2), cycle 1, n=6, read-out: Raltitrexed t1/2 terminal (converted)) was 12.3 days. It also gave an AUC [4, 19] of 1500 ng·h/mL, a Cmax [4, 19] of 0.574 µg/mL and a clearance ([4]; dose level VII (irinotecan 400, raltitrexed 2.6 mg m-2), cycle 1, n=6, read-out: Raltitrexed Cl (converted)) of 55.7 mL/min. For the same compound, the Vd ([4]; dose level VII (irinotecan 400, raltitrexed 2.6 mg m-2), cycle 1, n=6, read-out: Raltitrexed Vss) was 43.8 L, the half-life ([4]; dose level VII (irinotecan 400, raltitrexed 2.6 mg m-2), cycle 1, n=6, read-out: Raltitrexed t1/2 terminal (converted)) was 10.9 days and the clearance ([4]; over all dose ranges, 27 patients, read-out: raltitrexed Cl (converted)) was 51.7 mL/min. The half-life ([4]; over all dose ranges, 27 patients, read-out: raltitrexed t1/2 (converted)) was 12.1 days, the “raltitrexed AUC” value [5, 20] was 2342 ng/h/mL and the “raltitrexed Cmax” value [5, 20] was 0.737 µg/mL. For the same compound, the raltitrexed clearance [5, 20] was 2.48 L/h and the “change of raltitrexed AUC in renal impairment” value ([5]; patients with measured creatinine clearance less than 65 ml min-1, ref Judson et al) was “approximately doubled”.
